From the NIST ThermoML archive (doi:10.1021/je700260f)

Conditions: 333.15 K, Liquid, Vibrating tube method

FC(C(F)(F)F)C(F)(F)F [1,1,1,2,3,3,3-heptafluoropropane]
Conditions | mass density [kg/m3]
26099 kPa | 1421.9
26128 kPa | 1422
26167 kPa | 1422.2
26201 kPa | 1422.2
26234 kPa | 1422.6
26257 kPa | 1422.6
26527 kPa | 1423.9
26563 kPa | 1423.8
26596 kPa | 1424.2
26625 kPa | 1424.4
26654 kPa | 1424.4
26692 kPa | 1424.5
26726 kPa | 1424.8
26760 kPa | 1424.8
26801 kPa | 1425
26831 kPa | 1425.1
26860 kPa | 1425.4
26889 kPa | 1425.4
26914 kPa | 1425.6
26943 kPa | 1425.8
26972 kPa | 1425.8
26999 kPa | 1425.9
27023 kPa | 1426
27056 kPa | 1426.1
27081 kPa | 1426.2
27119 kPa | 1426.4
27151 kPa | 1426.6
27180 kPa | 1426.6
27621 kPa | 1428.6
27651 kPa | 1428.9
27681 kPa | 1428.9
27707 kPa | 1428.9
27750 kPa | 1429.2
27783 kPa | 1429.3
27818 kPa | 1429.5
27852 kPa | 1429.7
27890 kPa | 1429.9
27916 kPa | 1430
27950 kPa | 1430.1
27975 kPa | 1430.2
28484 kPa | 1432.4
28514 kPa | 1432.5
28543 kPa | 1432.6
28577 kPa | 1432.8
28602 kPa | 1432.9
28633 kPa | 1433
28668 kPa | 1433.1
28698 kPa | 1433.3
28730 kPa | 1433.3
28761 kPa | 1433.5
28792 kPa | 1433.6
28833 kPa | 1433.9
28866 kPa | 1434
28892 kPa | 1434.1
28917 kPa | 1434.2
28956 kPa | 1434.4
28982 kPa | 1434.4
29008 kPa | 1434.6
29042 kPa | 1434.7
29069 kPa | 1434.8
29104 kPa | 1434.9
29132 kPa | 1435.2
29171 kPa | 1435.3
29206 kPa | 1435.5
29233 kPa | 1435.5
29267 kPa | 1435.7
29293 kPa | 1435.7
29326 kPa | 1435.9
29364 kPa | 1436.1
29400 kPa | 1436.2
29434 kPa | 1436.4
29694 kPa | 1437.4
29758 kPa | 1437.7
30086 kPa | 1439
30149 kPa | 1439.4
30189 kPa | 1439.6
30299 kPa | 1440
30336 kPa | 1440.1
30372 kPa | 1440.3
30402 kPa | 1440.3
30439 kPa | 1440.7
30461 kPa | 1440.7
30493 kPa | 1440.8
30521 kPa | 1440.9
30557 kPa | 1441.1
30586 kPa | 1441.1
30623 kPa | 1441.3
30650 kPa | 1441.3
30690 kPa | 1441.5
30717 kPa | 1441.7
30753 kPa | 1441.8
30780 kPa | 1441.9
30816 kPa | 1442.1
30843 kPa | 1442
30884 kPa | 1442.3
30925 kPa | 1442.4
32911 kPa | 1450.4
32943 kPa | 1450.4
32981 kPa | 1450.6
33028 kPa | 1450.9
33066 kPa | 1451
33093 kPa | 1451.1
33132 kPa | 1451.1
